How the values were obtained:
[1] = molecular target: T1, HCV polymerase (NS5B) type 1b (Hepatitis C virus genotype 1b, UniProt P26663); assay: Assay of enzyme (HCV polymerase) inhibitory activity, type 1b enzyme; assay type: biochemical, HCV BK strain (type 1b); conditions: HCV polymerase inhibitory activity (IC50), 1b, type 1b enzyme 0.5 μg/ml, 25° C., 60 min
T1 construct: a region encoding NS5B (J Virol 1991 March, 65(3), 1105-13, 544 amino acids after deletion of 47 amino acids on the C-terminal); 6xHis (C); made in house; host or cells: Escherichia coli
How it was run: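 NS5B from HCV BK strain (type 1b), C-terminal 47 aa deleted, C-terminal His6-tagged, E. coli-expressed, 0.5 μg/ml, with ~450 nt substrate RNA carrying the 3′ UTR (polyU, 3′X) at 5 μg/ml. Incubation 60 min at 25 °C with 50 μM ATP/GTP/CTP, 2 μM UTP plus [3H]UTP, pH 7.5 Tris.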

[2] = molecular target: T2, HCV polymerase (NS5B) type 1a (Hepatitis C virus genotype 1a, UniProt P26664); assay: Assay of enzyme (HCV polymerase) inhibitory activity, type 1a enzyme; assay type: biochemical, HCV type 1a (cloned from the blood of patients); conditions: HCV polymerase inhibitory activity (IC50), 1a, type 1a enzyme 1.5 μg/ml, 25° C., 60 min
T2 construct: made in house; host or cells: Escherichia coli (by the 'similar method' of the 1b enzyme)
How it was run: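 Patient-derived type 1a NS5B (C-terminal 47-aa deletion, His-tagged, E. coli-expressed) at 1.5 μg/ml was reacted with 5 μg/ml 3′UTR-containing substrate RNA, 50 μM ATP/GTP/CTP, 2 μM UTP plus [3H]UTP, pH 7.5, 25° C for 60 min. TCA-precipitated RNA radioactivity was counted; IC50 from ± compound.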

Structure (SMILES) | IC50 [1] [nM] | IC50 [2] [nM]
CCC(F)(F)c1ccc(CNC(=O)[C@H]2CN(C(=O)Cn3nnnc3C(C)C)CCN2S(=O)(=O)c2ccc(OC(F)(F)F)cc2)cc1 [Example 541, (R)-4-[2-(5-isopropyl-tetrazol-1-yl)-acetyl]-1-(4-trifluoromethoxy-benzenesulfonyl)-piperazine-2-carboxylic acid 4-(1,1-difluoro-propyl)-benzylamide] | 100 to 1000 | 100 to 1000
CCC(F)(F)c1ccc(CNC(=O)[C@H]2CN(C(=O)Cn3nnc(C(C)C)n3)CCN2S(=O)(=O)c2ccc(OC(F)(F)F)cc2)cc1 [Example 542, (R)-4-[2-(5-isopropyl-tetrazol-2-yl)-acetyl]-1-(4-trifluoromethoxy-benzenesulfonyl)-piperazine-2-carboxylic acid 4-(1,1-difluoro-propyl)-benzylamide] | < 100 | < 100
CCC(F)(F)c1ccc(CNC(=O)[C@H]2CN(C(=O)Cn3nnc(CC(=O)N4CCOCC4)n3)CCN2S(=O)(=O)c2ccc(OC(F)(F)F)cc2)cc1 [Example 543, (R)-4-{2-[5-(2-morpholin-4-yl-2-oxo-ethyl)-tetrazol-2-yl]-acetyl}-1-(4-trifluoromethoxy-benzenesulfonyl)-piperazine-2-carboxylic acid 4-(1,1-difluoro-propyl)-benzylamide] | < 100 | < 100
CCCc1ccc(CNC(=O)[C@H]2CN(c3cnc(NS(C)(=O)=O)cn3)CCN2S(=O)(=O)c2ccc(OC(F)(F)F)cc2)cc1 [Example 544, (R)-5′-methanesulfonylamino-4-(4-trifluoromethoxy-benzenesulfonyl)-3,4,5,6-tetrahydro-2H-[1,2′]bipyrazinyl-3-carboxylic acid 4-propyl-benzylamide] | < 100 | < 100
CC(C)(C)c1ccc(CNC(=O)[C@H]2CN(c3cnc(CO)cn3)CCN2S(=O)(=O)c2ccc(OC(F)(F)F)cc2)cc1 [Example 545, (R)-5′-hydroxymethyl-4-(4-trifluoromethoxy-benzenesulfonyl)-3,4,5,6-tetrahydro-2H-[1,2′]bipyrazinyl-3-carboxylic acid 4-tert-butyl-benzylamide] | < 100 | < 100
CCCc1ccc(CNC(=O)[C@H]2CN(c3ccc(O)nn3)CCN2S(=O)(=O)c2ccc(OC(F)(F)F)cc2)cc1 [Example 546, (R)-4-(6-hydroxy-pyridazin-3-yl)-1-(4-trifluoromethoxy-benzenesulfonyl)-piperazine-2-carboxylic acid 4-propyl-benzylamide] | < 100 | < 100
CCCc1ccc(CNC(=O)[C@H]2CN(c3ccc(C(N)=O)nn3)CCN2S(=O)(=O)c2ccc(OC(F)(F)F)cc2)cc1 [Example 547, 6-[(R)-3-(4-propyl-benzylcarbamoyl)-4-(4-trifluoromethoxy-benzenesulfonyl)-piperazin-1-yl]-pyridazine-3-carboxylic acid amide] | < 100 | < 100
CCCc1ccc(CNC(=O)[C@H]2CN(c3nc4c(s3)CN(C)CC4)CCN2S(=O)(=O)c2ccc(OC(F)(F)F)cc2)cc1 [Example 548, (R)-4-(5-methyl-4,5,6,7-tetrahydro-thiazolo[5,4-c]pyridin-2-yl)-1-(4-trifluoromethoxy-benzenesulfonyl)-piperazine-2-carboxylic acid 4-propyl-benzylamide] | < 100 | < 100
CCCc1ccc(CNC(=O)[C@H]2CN(c3cnc(CO)c(N)n3)CCN2S(=O)(=O)c2ccc(OC(F)(F)F)cc2)cc1 [Example 549, (R)-6′-amino-5′-hydroxymethyl-4-(4-trifluoromethoxy-benzenesulfonyl)-3,4,5,6-tetrahydro-2H-[1,2′]bipyrazinyl-3-carboxylic acid 4-propyl-benzylamide] | < 100 | < 100
CC(=O)N1CCN(S(=O)(=O)c2ccc(OC(F)(F)F)cc2)[C@@H](C(=O)NCc2ccc(C(F)(F)C(F)(F)F)cc2)C1 [Example 550, (R)-4-acetyl-1-(4-trifluoromethoxy-benzenesulfonyl)-piperazine-2-carboxylic acid 4-pentafluoroethyl-benzylamide] | 100 to 1000 | 100 to 1000
Cc1nnn(CC(=O)N2CCN(S(=O)(=O)c3ccc(OC(F)(F)F)cc3)[C@@H](C(=O)NCc3ccc(C(F)(F)C(F)(F)F)cc3)C2)n1 [Example 551, (R)-4-[2-(5-methyl-tetrazol-2-yl)-acetyl]-1-(4-trifluoromethoxy-benzenesulfonyl)-piperazine-2-carboxylic acid 4-pentafluoroethyl-benzylamide] | 100 to 1000 | 100 to 1000
Cc1nnc(NC(=O)N2CCN(S(=O)(=O)c3ccc(OC(F)(F)F)cc3)[C@@H](C(=O)NCc3ccc(C(F)(F)C(F)(F)F)cc3)C2)s1 [Example 552, (R)-4-(4-trifluoromethoxy-benzenesulfonyl)-piperazine-1,3-dicarboxylic acid 1-[(5-methyl-[1,3,4]thiadiazol-2-yl)-amide] 3-(4-pentafluoroethyl-benzylamide)] | 100 to 1000 | > 1000
CCC(F)(F)c1ccc(CNC(=O)[C@H]2CN(C(=O)Nc3cc(C)ns3)CCN2S(=O)(=O)c2ccc(OC(F)(F)F)cc2)cc1 [Example 553, (R)-4-(4-trifluoromethoxy-benzenesulfonyl)-piperazine-1,3-dicarboxylic acid 3-[4-(1,1-difluoro-propyl)-benzylamide] 1-[(3-methyl-isothiazol-5-yl)-amide]] | < 100 | < 100
CCC(F)(F)c1ccc(CNC(=O)[C@H]2CN(C(=O)Nc3nccs3)CCN2S(=O)(=O)c2ccc(OC(F)(F)F)cc2)cc1 [Example 554, (R)-4-(4-trifluoromethoxy-benzenesulfonyl)-piperazine-1,3-dicarboxylic acid 3-[4-(1,1-difluoro-propyl)-benzylamide] 1-thiazol-2-ylamide] | < 100 | 100 to 1000
CCC(F)(F)c1ccc(CNC(=O)[C@H]2CN(C(=O)Nc3ccnc(C(F)(F)F)c3)CCN2S(=O)(=O)c2ccc(OC(F)(F)F)cc2)cc1 [Example 555, (R)-4-(4-trifluoromethoxy-benzenesulfonyl)-piperazine-1,3-dicarboxylic acid 3-[4-(1,1-difluoro-propyl)-benzylamide] 1-[(2-trifluoromethyl-pyridin-4-yl)-amide]] | 100 to 1000 | 100 to 1000
CCCc1ccc(CNC(=O)[C@H]2CN(c3cnc4c(n3)NC(=O)OC4)CCN2S(=O)(=O)c2ccc(OC(F)(F)F)cc2)cc1 [Example 556, (R)-4-(2-oxo-1,4-dihydro-2H-pyrazino[2,3-d][1,3]oxazin-7-yl)-1-(4-trifluoromethoxy-benzenesulfonyl)-piperazine-2-carboxylic acid 4-propyl-benzylamide] | < 100 | < 100
CCCc1ccc(CNC(=O)[C@H]2CN(c3nc4c(s3)CNCC4)CCN2S(=O)(=O)c2ccc(OC(F)(F)F)cc2)cc1 [Example 557, (R)-4-(4,5,6,7-tetrahydro-thiazolo[5,4-c]pyridin-2-yl)-1-(4-trifluoromethoxy-benzenesulfonyl)-piperazine-2-carboxylic acid 4-propyl-benzylamide] | < 100 | < 100
CC(C)(C)c1ccc(CNC(=O)[C@H]2CN(c3cnc(CN4CCCC4)cn3)CCN2S(=O)(=O)c2ccc(OC(F)(F)F)cc2)cc1 [Example 558, (R)-5′-pyrrolidin-1-ylmethyl-4-(4-trifluoromethoxy-benzenesulfonyl)-3,4,5,6-tetrahydro-2H-[1,2′]bipyrazinyl-3-carboxylic acid 4-tert-butyl-benzylamide] | < 100 | 100 to 1000
CCC(F)(F)c1ccc(CNC(=O)[C@H]2CN(c3cnc(C(=O)O)cn3)CCN2S(=O)(=O)c2ccc(OC(F)(F)F)cc2)cc1 [Example 559, (R)-3-[4-(1,1-difluoro-propyl)-benzylcarbamoyl]-4-(4-trifluoromethoxy-benzenesulfonyl)-3,4,5,6-tetrahydro-2H-[1,2′]bipyrazinyl-5′-carboxylic acid] | < 100 | < 100
CCC(F)(F)c1ccc(CNC(=O)[C@H]2CN(c3cnc(CO)cn3)CCN2S(=O)(=O)c2ccc(OC(F)(F)F)cc2)cc1 [Example 560, (R)-5′-hydroxymethyl-4-(4-trifluoromethoxy-benzenesulfonyl)-3,4,5,6-tetrahydro-2H-[1,2′]bipyrazinyl-3-carboxylic acid 4-(1,1-difluoro-propyl)-benzylamide] | < 100 | < 100
CCCc1ccc(CNC(=O)[C@H]2CN(c3nc4c(s3)CN(Cc3ccccc3)CC4)CCN2S(=O)(=O)c2ccc(OC(F)(F)F)cc2)cc1 [Example 561, (R)-4-(5-benzyl-4,5,6,7-tetrahydro-thiazolo[5,4-c]pyridin-2-yl)-1-(4-trifluoromethoxy-benzenesulfonyl)-piperazine-2-carboxylic acid 4-propyl-benzylamide] | < 100 | < 100
CCCc1ccc(CNC(=O)[C@H]2CN(c3nc(CO)c(CO)s3)CCN2S(=O)(=O)c2ccc(OC(F)(F)F)cc2)cc1 [Example 562, (R)-4-(4,5-bis-hydroxymethyl-thiazol-2-yl)-1-(4-trifluoromethoxy-benzenesulfonyl)-piperazine-2-carboxylic acid 4-propyl-benzylamide] | < 100 | < 100
